Source: US9028845B2, “Chimeric immunomodulatory compounds and methods of using the same-IV” (Dynavax Technologies Corporation, priority 2001, dated 2015)

Test system: human PBMCs
Assay: Human PBMC cytokine response assay (IFN-γ and IFN-α in cell-free medium by ELISA), with or without cPLGA;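 as to IFN-α (pg/ml) mean: 20 µg/mL compound for 24 hours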;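 as to IFN-γ (pg/ml) mean: 20 µg/mL compound for 24 hours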
Format: cell-based
Settings: for IFN-α from human PBMC compared with parent oligonucleotide P-17, in words: low doses (e.g., 0.8 ug/ml), four individuals; for IFN-α (pg/ml) mean / IFN-γ (pg/ml) mean: mean of donors 110, 112, 119, 120
[1] = Example 58, 0.8 ug/ml, mean of four individuals
[2] = Example 58, 4 ug/ml, mean of four individuals
[3] = Example 58, 20 ug/ml, mean of four individuals

Work on “(5′-TCGAACGTTCGA-3′ (SEQ ID NO: 155)-HEG)2-glycerol-HEG-5′-TCGAACGTTCGA-3′ (SEQ ID NO: 155) (three copies via HEG-glycerol branching, chemistry not fully specified) [Compound C-173]” yielded an IFN-α (Example 58, 0.8 ug/ml, donor 1) of 272 pg/mL, an IFN-α (Example 58, 0.8 ug/ml, donor 2) of 1293 pg/mL and an IFN-α (Example 58, 0.8 ug/ml, donor 3) of 1138 pg/mL. The IFN-α (Example 58, 0.8 ug/ml, donor 4) was 2547 pg/mL, the IFN-α mean [1] was 1312 pg/mL and the IFN-α (Example 58, 4 ug/ml, donor 1) was 3828 pg/mL. For the same substance, the IFN-α (Example 58, 4 ug/ml, donor 2) was 2917 pg/mL, the IFN-α (Example 58, 4 ug/ml, donor 3) was 2197 pg/mL and the IFN-α (Example 58, 4 ug/ml, donor 4) was 3563 pg/mL. The IFN-α mean [2] was 3126 pg/mL, the IFN-α (Example 58, 20 ug/ml, donor 1) was 14381 pg/mL and the IFN-α (Example 58, 20 ug/ml, donor 2) was 8060 pg/mL. The IFN-α (Example 58, 20 ug/ml, donor 3) was 66 pg/mL, the IFN-α (Example 58, 20 ug/ml, donor 4) was 299 pg/mL and the IFN-α mean [3] was 5701 pg/mL. The “IFN-α from human PBMC compared with parent oligonucleotide P-17, in words” value was “induce significantly more IFN-α”.

Work on “(5′-TCGAACGTTCGA-3′ (SEQ ID NO: 155)-HEG)3-trebler-HEG-5′-T-3′ (three copies HEG-trebler branched, HEG-T, chemistry not fully specified) [Compound C-175]” yielded an IFN-α (Example 58, 0.8 ug/ml, donor 1) of 21783 pg/mL, an IFN-α (Example 58, 0.8 ug/ml, donor 2) of 16605 pg/mL and an IFN-α (Example 58, 0.8 ug/ml, donor 3) of 851 pg/mL. It also gave an IFN-α (Example 58, 0.8 ug/ml, donor 4) of 2874 pg/mL, an IFN-α mean [1] of 10528 pg/mL and an IFN-α (Example 58, 4 ug/ml, donor 1) of 7134 pg/mL. The IFN-α (Example 58, 4 ug/ml, donor 2) was 6779 pg/mL, the IFN-α (Example 58, 4 ug/ml, donor 3) was 906 pg/mL and the IFN-α (Example 58, 4 ug/ml, donor 4) was 1951 pg/mL. The IFN-α mean [2] was 4193 pg/mL, the IFN-α (Example 58, 20 ug/ml, donor 1) was 2250 pg/mL and the IFN-α (Example 58, 20 ug/ml, donor 2) was 732 pg/mL. For the same substance, the IFN-α (Example 58, 20 ug/ml, donor 3) was 52 pg/mL, the IFN-α (Example 58, 20 ug/ml, donor 4) was 52 pg/mL and the IFN-α mean [3] was 771 pg/mL. The “IFN-α from human PBMC compared with parent oligonucleotide P-17, in words” value was “induce significantly more IFN-α”.

“5′-TGACTGTGA-3′-HEG-5′-ACGTTCG-3′-HEG-5′-AGATGAT-3′ [Compound C-53]” was tested, and the IFN-α (Table 11, donor 28042) was 0 pg/mL, the IFN-γ (Table 11, donor 28042) was 39 pg/mL and the IFN-α (Table 11, donor 28043) was 0 pg/mL. It also gave an IFN-γ (Table 11, donor 28043) of 27 pg/mL, an IFN-α (Table 11, donor 28044) of 0 pg/mL and an IFN-γ (Table 11, donor 28044) of 38 pg/mL. The IFN-α (Table 11, donor 28045) was 5 pg/mL, the IFN-γ (Table 11, donor 28045) was 26 pg/mL and the IFN-α mean (Table 11, mean of donors) was 1 pg/mL. For the same substance, the IFN-γ mean (Table 11, mean of donors) was 32 pg/mL.

With “5′-TCGTCG-3′-HEG-5′-TCGA-3′ [Compound C-40]” the IFN-α (Table 10, donor 28042) was 0 pg/mL, the IFN-γ (Table 10, donor 28042) was 26 pg/mL and the IFN-α (Table 10, donor 28043) was 26 pg/mL. It also gave an IFN-γ (Table 10, donor 28043) of 55 pg/mL, an IFN-α (Table 10, donor 28044) of 31 pg/mL and an IFN-γ (Table 10, donor 28044) of 20 pg/mL. The IFN-α (Table 10, donor 28045) was 2 pg/mL, the IFN-γ (Table 10, donor 28045) was 23 pg/mL and the IFN-α mean (Table 10, mean of donors) was 15 pg/mL. The IFN-γ mean (Table 10, mean of donors) was 31 pg/mL, the “IFN-α” value (donor 110, Table 14) was 6 pg/mL and the “IFN-γ” value (donor 110, Table 14) was 180 pg/mL. For the same substance, the “IFN-α” value (donor 112, Table 14) was 198 pg/mL, the “IFN-γ” value (donor 112, Table 14) was 12 pg/mL and the “IFN-α” value (donor 119, Table 14) was 152 pg/mL. The “IFN-γ” value (donor 119, Table 14) was 4 pg/mL, the “IFN-α” value (donor 120, Table 14) was 2 pg/mL and the “IFN-γ” value (donor 120, Table 14) was 20 pg/mL. For the same substance, the “activity when formulated with cPLGA, in words” value (formulated with cPLGA) was “significant activity when formulated with cPLGA”, the “IFN-α (pg/ml) mean” value (Table 14) was 90 pg/mL and the “IFN-γ (pg/ml) mean” value (Table 14) was 54 pg/mL. The “immunomodulatory activity (IFN-γ / IFN-α secretion), in words” value (used alone (no cPLGA)) was “inactive in this experiment”.

“5′-CGTTCGA-3′-HEG-5′-CGTTCGA-3′-HEG-5′-CGTTCGA-3′ [Compound C-52]” was tested, and the IFN-α (Table 10, donor 28042) was 0 pg/mL, the IFN-γ (Table 10, donor 28042) was 238 pg/mL and the IFN-α (Table 10, donor 28043) was 3 pg/mL. The IFN-γ (Table 10, donor 28043) was 214 pg/mL, the IFN-α (Table 10, donor 28044) was 35 pg/mL and the IFN-γ (Table 10, donor 28044) was 212 pg/mL. The IFN-α (Table 10, donor 28045) was 48 pg/mL, the IFN-γ (Table 10, donor 28045) was 28 pg/mL and the IFN-α mean (Table 10, mean of donors) was 22 pg/mL. For the same substance, the IFN-γ mean (Table 10, mean of donors) was 173 pg/mL, the “IFN-α” value (donor 110, Table 14) was 2 pg/mL and the “IFN-γ” value (donor 110, Table 14) was 472 pg/mL. The “IFN-α” value (donor 112, Table 14) was 2 pg/mL, the “IFN-γ” value (donor 112, Table 14) was 48 pg/mL and the “IFN-α” value (donor 119, Table 14) was 292 pg/mL. For the same substance, the “IFN-γ” value (donor 119, Table 14) was 40 pg/mL, the “IFN-α” value (donor 120, Table 14) was 2 pg/mL and the “IFN-γ” value (donor 120, Table 14) was 28 pg/mL. The “IFN-α (pg/ml) mean” value (Table 14) was 75 pg/mL and the “IFN-γ (pg/ml) mean” value (Table 14) was 147 pg/mL.
